Source: patent publication US11072591B2, “Tetrazole compounds and their use in the treatment of tuberculosis” (GLAXOSMITHKLINE INTELLECTUAL PROPERTY DEVELOPMENT LIMITED, priority 2017, dated 2021)
≈ marks a conversion by molar mass, not a printed value. Like-named read-outs stand apart in the source and are kept apart here.

Tested on: M. tuberculosis H37Rv
Assay: Mycobacterium tuberculosis H37Rv Inhibition Assay (Whole Cell Assay), MIC
Type: cell-based
[1] = 144 h, M. tuberculosis H37Rv, Middlebrook 7H9 + ADC, 37° C. six days, resazurin readout, read-out: MIC_H37Rv
[2] = M. tuberculosis H37Rv whole cell assay, value from repeated testing of the compound, read-out: MIC

SMILES: O=S(=O)(NCCO)c1ccc(-c2nnn(CC3CCOCC3)n2)cc1F [Example 78, 2-fluoro-N-(2-hydroxyethyl)-4-(2-((tetrahydro-2H-pyran-4-yl)methyl)-2H-tetrazol-5-yl)benzenesulfonamide]
- MIC [1]: < 0.1 µM

SMILES: O=S(=O)(NCCO)c1ccc(-c2nnn(CC3CCCCC3)n2)cc1F [Example 79, 4-(2-(cyclohexylmethyl)-2H-tetrazol-5-yl)-2-fluoro-N-(2-hydroxyethyl)benzenesulfonamide]
- MIC [1]: < 0.1 µM

SMILES: O=S(=O)(NCCO)c1ccc(-c2nnn(Cc3ccc(F)cn3)n2)c(Cl)c1 [Example 81, 3-chloro-4-(2-((5-fluoropyridin-2-yl)methyl)-2H-tetrazol-5-yl)-N-(2-hydroxyethyl)benzenesulfonamide]
- MIC [1]: < 0.1 µM

SMILES: O=S(=O)(NCCO)c1c(F)cc(-c2nnn(Cc3ccc(F)cn3)n2)cc1F [Example 87, 2,6-difluoro-4-(2-((5-fluoropyridin-2-yl)methyl)-2H-tetrazol-5-yl)-N-(2-hydroxyethyl)benzenesulfonamide]
- MIC [2]: ≤ 0.04 µM

SMILES: N#CCNS(=O)(=O)c1ccc(-c2nnn(CC3CCOCC3)n2)cc1 [Example 89, N-(cyanomethyl)-4-(2-((tetrahydro-2H-pyran-4-yl)methyl)-2H-tetrazol-5-yl)benzenesulfonamide]
- MIC [1]: < 0.1 µM

SMILES: N#CCNS(=O)(=O)c1ccc(-c2nnn(Cc3cnccn3)n2)cc1 [Example 90, N-(cyanomethyl)-4-(2-(pyrazin-2-ylmethyl)-2H-tetrazol-5-yl)benzenesulfonamide]
- MIC [1]: < 0.1 µM

SMILES: Cc1cnc(Cn2nnc(-c3ccc(S(=O)(=O)NCC#N)cc3)n2)cn1 [Example 91, N-(cyanomethyl)-4-(2-((5-methylpyrazin-2-yl)methyl)-2H-tetrazol-5-yl)benzenesulfonamide]
- MIC [1]: < 0.1 µM

SMILES: COc1cnc(Cn2nnc(-c3ccc(S(=O)(=O)NCC#N)cc3)n2)cn1 [Example 92, N-(cyanomethyl)-4-(2-((5-methoxypyrazin-2-yl)methyl)-2H-tetrazol-5-yl)benzenesulfonamide]
- MIC [1]: 1 to 5 µM

SMILES: COc1ccc(Cn2nnc(-c3ccc(S(=O)(=O)NCC#N)cc3)n2)cn1 [Example 93, N-(cyanomethyl)-4-(2-((6-methoxypyridin-3-yl)methyl)-2H-tetrazol-5-yl)benzenesulfonamide]
- MIC [1]: < 0.1 µM

SMILES: COc1cc(-c2nnn(CC3CCC(F)(F)CC3)n2)ccc1S(=O)(=O)NCC(N)=O [Example 95, 2-((4-(2-((4,4-difluorocyclohexyl)methyl)-2H-tetrazol-5-yl)-2-methoxyphenyl)sulfonamido)acetamide]
- MIC [1]: 1 to 5 µM

SMILES: NC(=O)CNS(=O)(=O)c1ccc(-c2nnn(CC3CCCCO3)n2)cc1 (stereo not shown) [Example 96, 2-((4-(2-((tetrahydro-2H-pyran-2-yl)methyl)-2H-tetrazol-5-yl)phenyl)sulfonamido)acetamide]
- MIC [1]: < 0.1 µM

SMILES: O=S(=O)(NCCO)c1ccc(-c2nnn(Cc3ccc(OC(F)(F)F)cc3)n2)cc1 [Example 97]
- MIC [1]: 1 to 5 µM

SMILES: O=S(=O)(NCCO)c1ccc(-c2nnn(Cc3ccc(C(F)(F)F)cc3)n2)cc1 [Example 98]
- MIC [1]: 5 to 10 µM

SMILES: CCOc1ccc(Cn2nnc(-c3ccc(S(=O)(=O)NCCO)cc3)n2)cc1 [Example 99]
- MIC [1]: < 0.1 µM

SMILES: O=S(=O)(NCCO)c1ccc(-c2nnn(CC3CCCCC3)n2)cc1 [Example 100, 4-(2-(cyclohexylmethyl)-2H-tetrazol-5-yl)-N-(2-hydroxyethyl)benzenesulfonamide]
- MIC [1]: < 0.1 µM

SMILES: Cc1ccc(Cn2nnc(-c3ccc(S(=O)(=O)NCCO)cc3)n2)cn1 [Example 101, N-(2-hydroxyethyl)-4-(2-((6-methylpyridin-3-yl)methyl)-2H-tetrazol-5-yl)benzenesulfonamide]
- MIC [1]: < 0.1 µM

SMILES: O=S(=O)(NCCO)c1ccc(-c2nnn(Cc3cccnc3)n2)cc1 [Example 102, N-(2-hydroxyethyl)-4-(2-(pyridin-3-ylmethyl)-2H-tetrazol-5-yl)benzenesulfonamide]
- MIC [1]: < 0.1 µM

SMILES: O=S(=O)(NCCO)c1ccc(-c2nnn(CC3CCCOC3)n2)cc1 (stereo not shown) [Example 104, N-(2-hydroxyethyl)-4-(2-((tetrahydro-2H-pyran-3-yl)methyl)-2H-tetrazol-5-yl)benzenesulfonamide]
- MIC [1]: 5 to 10 µM

SMILES: O=S(=O)(NCCO)c1ccc(-c2nnn(CC3CCOCC3)n2)cc1 [Example 105, N-(2-hydroxyethyl)-4-(2-((tetrahydro-2H-pyran-4-yl)methyl)-2H-tetrazol-5-yl)benzenesulfonamide]
- MIC [1]: 1 to 5 µM

SMILES: O=S(=O)(NCCO)c1ccc(-c2nnn(Cc3ccnnc3)n2)cc1 [Example 106, N-(2-hydroxyethyl)-4-(2-(pyridazin-4-ylmethyl)-2H-tetrazol-5-yl)benzenesulfonamide]
- MIC [1]: < 0.1 µM

SMILES: CNS(=O)(=O)c1ccc(-c2nnn(Cc3ccc(C#N)cc3)n2)cc1 [Example 108, 4-(2-(4-cyanobenzyl)-2H-tetrazol-5-yl)-N-methylbenzenesulfonamide]
- MIC [1]: 1 to 5 µM

SMILES: COc1ccc(Cn2nnc(-c3ccc(S(=O)(=O)NCCO)c(OC)c3)n2)nc1 [Example 109, N-(2-hydroxyethyl)-2-methoxy-4-(2-((5-methoxypyridin-2-yl)methyl)-2H-tetrazol-5-yl)benzenesulfonamide]
- MIC [1]: 1 to 5 µM

SMILES: Cc1cc(S(=O)(=O)NCCO)c(F)cc1-c1nnn(Cc2ccc(F)cn2)n1 [Example 110, 2-fluoro-4-(2-((5-fluoropyridin-2-yl)methyl)-2H-tetrazol-5-yl)-N-(2-hydroxyethyl)-5-methylbenzenesulfonamide]
- MIC [1]: < 0.1 µM

SMILES: C[C@@H](c1ccc(F)cn1)n1nnc(-c2ccc(S(=O)(=O)NCCO)cc2)n1 [Example 111 (S-isomer), (S)-4-(2-(1-(5-fluoropyridin-2-yl)ethyl)-2H-tetrazol-5-yl)-N-(2-hydroxyethyl)benzenesulfonamide]
- MIC [2]: 0.6 to 1.88 µM (≈ 0.235 to 0.736 µg/mL)

SMILES: C[C@@H](c1ccc(F)cn1)n1nnc(-c2ccc(S(=O)(=O)NCCO)cc2)n1 [Example 111]
- MIC [1]: 1 to 5 µM
